The results in this text go back to patent publication US12331051B2 (priority 2021, dated 2025).

One experiment deals with D1 dopamine receptor (Homo sapiens, UniProt P21728). Briefly: Radioligand binding, cell membrane homogenates. Further details: expressed in transfected cells; host or cells: HEK-293. The protocol: Neuro-receptor binding and functional effects of the “E559 polymorph” was examined by analyzing binding affinity [Ki (nM)], functional agonist activity [EC50 (nM)], and functional antagonist activity [IC50 (nM)] against a panel of key receptors in neurophysiological disorders. Binding and functional assays were performed at “E559 polymorph” concentrations of 0.0003, 0.003, 0.01, 0.03, 0.1, 0.3, 1, and 10 μM. In binding assays, cell membrane homogenates, expressing each receptor target, were incubated with the corresponding radio-ligand in absence or presence of several concentration of the “E559 polymorph” compound. The measurement of binding affinity of the “E559 polymorph” is represented in TABLE XIII by Ki (nM) which was calculated as percent inhibition of the binding of a radioactively labeled reference ligand at each receptor. […] Following incubation, the cells were lysed and the appropriate fluorescent probe (Ca2+ flux, cAMP, or IP1) were added for 60 minutes to measure the fluorescence transfer at the appropriate wavelength using a microplate reader. The cellular agonist effect (EC50) was calculated as a percent of control response to a known reference agonist and the cellular antagonist effect (IC50) was calculated as a percent inhibition of control reference agonist response for each receptor.
Chain of D1 dopamine receptor (P21728 whole entry): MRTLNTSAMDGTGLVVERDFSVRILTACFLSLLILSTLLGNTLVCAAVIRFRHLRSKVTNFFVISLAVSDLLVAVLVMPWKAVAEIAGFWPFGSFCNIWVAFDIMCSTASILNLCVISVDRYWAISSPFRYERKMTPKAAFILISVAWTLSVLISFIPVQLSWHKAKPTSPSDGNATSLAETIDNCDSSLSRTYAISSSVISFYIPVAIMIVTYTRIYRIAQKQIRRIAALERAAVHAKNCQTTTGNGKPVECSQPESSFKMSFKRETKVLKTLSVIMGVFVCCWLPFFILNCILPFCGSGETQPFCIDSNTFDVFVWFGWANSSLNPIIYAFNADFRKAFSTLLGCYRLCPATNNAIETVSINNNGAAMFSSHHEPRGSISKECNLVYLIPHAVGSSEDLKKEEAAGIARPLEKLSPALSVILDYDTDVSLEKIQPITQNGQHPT

A further experiment concerns stress naive mice. Briefly: Open field test (OFT), stress naive mice. Format: in vivo, mouse. The protocol:
In brief, stress naive mice were treated (IP injection) with either saline (control) or single dose of the “E559 polymorph” at 0.3, 1, or 3 mg/kg dose levels and were evaluated 24 hours (OFT) and […] after treatment. The OFT was performed described in Example 13. The FST was performed as previously described in (Aguilar-Valles et al., Nature, 2021, 590, p315-319). Briefly FST was performed 24-hour post treatment by placing the mice (one by one) in a 4-liter wide-mouthed flask of 35° C. water. Mice activities were recorded for 6 minutes and assessed for total time the animal remains immobile, a sign of depressive-like behavior. FIG. 25A depicts the study design where female/male mice (n=10/group/sex) were treated by IP injection with the “E559 polymorph” or vehicle (saline) followed by open field and force swim test 24 hours post treatment. FIGS. 25B and 25E represent the total distance travelled in the open field test 24 hours after vehicle or the “E559 polymorph” in female and male mice, respectively. FIGS. 25C and 25F represent the time in the center of the open field by female and male mice, respectively. FIGS. 25D and 25G represent the immobility time during the last 4 minutes of the forced swim test in female and male mice, respectively. Horizontal lines represent the mean±standard error of the mean (S.E.M.) and asterisks indicate statistical significances.

Experiment [1] concerns the target H1 histaminergic receptor (Homo sapiens, UniProt P35367). Briefly: BRET-based G protein dissociation assay. Format: cell-based. (Bioluminescence resonance energy transfer reports proximity on the nanometre scale.)
For experiment [2], the target named is T1, Alpha 2A adrenergic receptor (Homo sapiens, UniProt P08913).
T1 construct: expressed in transfected cells; host or cells: HEK-293
T1 sequence (P08913 1-465): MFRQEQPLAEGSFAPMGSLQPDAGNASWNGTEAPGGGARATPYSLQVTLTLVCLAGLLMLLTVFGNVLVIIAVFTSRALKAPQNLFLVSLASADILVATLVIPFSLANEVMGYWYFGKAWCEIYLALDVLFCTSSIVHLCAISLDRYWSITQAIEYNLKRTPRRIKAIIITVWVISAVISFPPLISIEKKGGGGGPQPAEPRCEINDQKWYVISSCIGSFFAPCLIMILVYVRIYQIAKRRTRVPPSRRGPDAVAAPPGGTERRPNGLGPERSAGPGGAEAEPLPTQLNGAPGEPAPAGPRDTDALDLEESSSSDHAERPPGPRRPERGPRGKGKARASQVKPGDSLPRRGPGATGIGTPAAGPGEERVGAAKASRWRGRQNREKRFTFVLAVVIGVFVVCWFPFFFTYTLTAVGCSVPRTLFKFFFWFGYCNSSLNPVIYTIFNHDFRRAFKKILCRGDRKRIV
The experiment is described as follows: Radioligand binding, cell membrane homogenates. As for the experimental part: (§1) Neuro-receptor binding and functional effects of the “E559 polymorph” was examined by analyzing binding affinity [Ki (nM)], functional agonist activity [EC50 (nM)], and functional antagonist activity [IC50 (nM)] against a panel of key receptors in neurophysiological disorders. Binding and functional assays were performed at “E559 polymorph” concentrations of 0.0003, 0.003, 0.01, 0.03, 0.1, 0.3, 1, and 10 μM. In binding assays, cell membrane homogenates, expressing each receptor target, were incubated with the corresponding radio-ligand in absence or presence of several concentration of the “E559 polymorph” compound. The measurement of binding affinity of the “E559 polymorph” is represented in TABLE XIII by Ki (nM) which was calculated as percent inhibition of the binding of a radioactively labeled reference ligand at each receptor. In functional assays the HEK-293 cells expressing each receptor target were suspended in buffer and distribute in microplates and incubated for 30 minutes at room temperature or 37° C. in the presence of buffer alone (basal control), the reference agonist or antagonist, or the “E559 polymorph. Following incubation, the cells were lysed and the appropriate fluorescent probe (Ca2+ flux, cAMP, or IP1) were added for 60 minutes to measure the fluorescence transfer at the appropriate wavelength using a microplate reader. The cellular agonist effect (EC50) was calculated as a percent of control response to a known reference agonist and the cellular antagonist effect (IC50) was calculated as a percent inhibition of control reference agonist response for each receptor.

The target of experiment [3] is T2, Alpha 1A adrenergic receptor (Homo sapiens, UniProt P35348).
T2 construct: expressed in transfected cells; host or cells: HEK-293
T2 sequence (P35348 1-466): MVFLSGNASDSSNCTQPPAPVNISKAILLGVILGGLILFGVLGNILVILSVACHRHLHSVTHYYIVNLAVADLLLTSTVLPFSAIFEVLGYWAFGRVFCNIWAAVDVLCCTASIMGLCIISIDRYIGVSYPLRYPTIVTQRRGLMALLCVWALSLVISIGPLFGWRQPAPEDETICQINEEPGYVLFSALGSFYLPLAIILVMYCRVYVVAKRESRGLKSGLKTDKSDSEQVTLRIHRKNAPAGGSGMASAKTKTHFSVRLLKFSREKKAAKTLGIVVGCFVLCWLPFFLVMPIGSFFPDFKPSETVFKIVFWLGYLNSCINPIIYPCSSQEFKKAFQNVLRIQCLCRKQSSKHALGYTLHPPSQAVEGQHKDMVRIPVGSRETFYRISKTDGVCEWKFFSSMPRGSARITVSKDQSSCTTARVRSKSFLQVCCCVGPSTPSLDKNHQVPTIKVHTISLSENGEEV
The experiment is described as follows: Radioligand binding, cell membrane homogenates. As for the experimental part:
as §1

Chain of H1 histaminergic receptor (P35367 whole entry): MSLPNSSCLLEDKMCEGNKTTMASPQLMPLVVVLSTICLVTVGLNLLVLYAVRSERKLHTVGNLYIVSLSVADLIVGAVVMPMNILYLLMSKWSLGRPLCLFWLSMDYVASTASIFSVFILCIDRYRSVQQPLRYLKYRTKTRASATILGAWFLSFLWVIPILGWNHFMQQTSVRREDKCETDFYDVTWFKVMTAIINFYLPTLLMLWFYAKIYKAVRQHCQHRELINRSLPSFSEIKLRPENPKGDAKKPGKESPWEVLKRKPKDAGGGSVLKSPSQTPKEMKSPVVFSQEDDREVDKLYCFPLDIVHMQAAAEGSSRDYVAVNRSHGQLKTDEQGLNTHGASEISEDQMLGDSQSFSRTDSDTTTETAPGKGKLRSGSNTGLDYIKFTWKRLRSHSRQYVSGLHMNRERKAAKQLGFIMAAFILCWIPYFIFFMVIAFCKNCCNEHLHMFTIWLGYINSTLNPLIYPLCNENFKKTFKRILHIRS

On to `CCN(CC)C(=O)[C@@H]1C=C2c3cccc4[nH]c(Br)c(c34)C[C@H]2N(C)C1` [E559, (5R, 8R)-2-Bromo-9,10-didehydro-N,N-diethyl-6-methylergoline-8-carboxamide hemi-D-tartrate], for which the Ki (commonly the equilibrium dissociation constant of an inhibitor or competing ligand from its target) was found to be 25 nM on D1 dopamine receptor, 10.3 nM in experiment [2] and 59 nM in experiment [3]. For the same compound, in the experiment with stress naive mice (female mice, IP 1 mg/kg, 24 hours after treatment), the “increase in exploration of the arena center (time in center), maximal effect” value was 88.18 ± 18.89 s. Further, the “exploration of the arena center” value in the experiment with stress naive mice (female mice, IP 1 and 3 mg/kg, 24 hours after treatment) is “increased exploration of the arena center”. For the same compound, the “increased exploration of the stressogenic area of the open field” value with stress naive mice (male mice, IP 0.3, 1 or 3 mg/kg) is listed as “not evident in male mice”. Besides, the half-maximal effective concentration (EC50) – broadly, the concentration at which the effect is half-maximal – in experiment [1] stood at 152 nM. In experiment [1], this compound returned a Kb of 983 nM.
